Data published in US20170354148A1, “SAFENED HERBICIDAL COMPOSITIONS CONTAINING HALAUXIFEN AND METHODS OF USE THEREOF IN BRASSICA SPECIES” (Dow AgroSciences LLC, priority 2016, published 2017).
Where “and” joins values, the source holds several entries; their conditions need not be identical. Identical values can stand only once.

Legend:
[1] = system: rutabaga (Brassica napus var. napobrassica, BRSNA); experiment: Example 5 greenhouse trials, postemergence visual injury; settings: for % Visual Injury Obs / Visual Injury Obs: BRSNA
[2] = system: Spring Argentine canola (Brassica napus, BRSNS); experiment: Example 3 field trials (Canada), postemergence crop safety, visual phytotoxicity
[3] = BRSNS, trial 1, 17DAA1, 0.62 g ae/ha
[4] = BRSNS, trial 1, 17DAA1, 1.25 g ae/ha
[5] = BRSNS, trial 1, 17DAA1, 2.5 g ae/ha
[6] = BRSNS, trial 1, 17DAA1, 5 g ae/ha
[7] = BRSNS, trial 1, 32DAA1, 0.62 g ae/ha

## COC(=O)c1nc(-c2ccc(Cl)c(OC)c2F)cc(N)c1Cl [Halauxifen-methyl, methyl 4-amino-3-chloro-6-(4-chloro-2-fluoro-3-methoxyphenyl)-2-pyridineccarboxylate]
[1]; 2.5 g ai/ha alone, 20-22 d
  % Visual Injury Obs: 5%
[1]; 5 g ai/ha alone, 20-22 d
  % Visual Injury Obs: 5%
[1]; 10 g ai/ha alone, 20-22 d
  % Visual Injury Obs: 10%
[1]; halauxifen-methyl 2.5 g ai/ha
  % Visual Injury Obs: 5%
  Visual Injury Obs: 5%
[1]; halauxifen-methyl 5 g ai/ha
  % Visual Injury Obs: 5%
  Visual Injury Obs: 5%
[1]; halauxifen-methyl 10 g ai/ha
  % Visual Injury Obs: 10%
  Visual Injury Obs: 10%
[1]; halauxifen-methyl alone 2.5 g ai/ha
  Percent (%) Visual Injury BRSNA Obs: 5%
[1]; halauxifen-methyl alone 5 g ai/ha
  Percent (%) Visual Injury BRSNA Obs: 5%
[1]; halauxifen-methyl alone 10 g ai/ha
  Percent (%) Visual Injury BRSNA Obs: 10%
[2]; BRSNS, 7DAAA, 5 g ae/ha (Tables 10, 11)
  Mean % Visual Injury: 0.8%
[2]; BRSNS, 15DAAA, 5 g ae/ha (Tables 10, 11)
  Mean % Visual Injury: 50.5%
[2]; BRSNS, 27DAAA, 5 g ae/ha (Tables 10, 11)
  Mean % Visual Injury: 48.5%
[2]; BRSNS, 57DAAA, 5 g ae/ha (Tables 10, 11)
  Mean % Visual Injury: 30.3%
[2]; BRSNS, trial 1, 7DAA1, 1.25 g ae/ha
  Mean % Visual Injury: 1.8%
[2]; BRSNS, trial 1, 7DAA1, 2.5 g ae/ha
  Mean % Visual Injury: 1.8%
[2]; BRSNS, trial 1, 7DAA1, 5 g ae/ha
  Mean % Visual Injury: 2.0%
[2]; [3]
  Mean % Visual Epinasty: 2.5%
  Mean % Visual Injury: 2.5%
[2]; [4]
  Mean % Visual Epinasty: 2.5%
  Mean % Visual Injury: 2.5%
[2]; [5]
  Mean % Visual Epinasty: 3.0%
  Mean % Visual Injury: 3.3%
[2]; [6]
  Mean % Visual Epinasty: 2.5%
  Mean % Visual Injury: 3.3%
[2]; [7]
  Mean % Visual Epinasty: 5.0%
  Mean % Visual Injury: 8.3%
[2]; BRSNS, trial 1, 32DAA1, 1.25 g ae/ha
  Mean % Visual Injury: 13.0%
[2]; BRSNS, trial 1, 49DAA1, 0.62 g ae/ha
  Mean % Visual Injury: 0.3%
[2]; BRSNS, trial 1, 49DAA1, 1.25 g ae/ha
  Mean % Visual Injury: 2.3%
[2]; BRSNS, trial 1, 49DAA1, 2.5 g ae/ha
  Mean % Visual Injury: 2.5%
[2]; BRSNS, trial 2, 8DAA1, 5 g ae/ha
  Mean % Visual Injury: 4.0% and 3.0% and 2.0%
[2]; BRSNS, trial 2, 8DAA1, 10 g ae/ha
  Mean % Visual Injury: 4.8% and 3.3% and 2.8% and 2.0%
[2]; BRSNS, trial 2, 17DAA1, 10 g ae/ha
  Mean % Visual Injury: 35.5%
[2]; BRSNS, trial 2, 35DAA1, 10 g ae/ha
  Mean % Visual Epinasty: 4.0% and 2.8%
[2]; BRSNS, trial 2, 48DAA1, 5 g ae/ha
  Mean % Visual Injury: 1.8% and 1.5%
[2]; BRSNS, trial 3, 6DAA1, 5 g ae/ha
  Mean % Visual Epinasty: 9.5%
[2]; BRSNS, trial 3, 6DAA1, 10 g ae/ha
  Mean % Visual Epinasty: 8.8%
[2]; BRSNS, trial 3, 23DAA1, 2.5 g ae/ha
  Mean % Visual Epinasty: 38.8%
[2]; BRSNS, trial 3, 23DAA1, 5 g ae/ha
  Mean % Visual Epinasty: 50.0%
[2]; BRSNS, trial 3, 33DAA1, 5 g ae/ha
  Mean % Visual Injury: 6.5% and 2.0%
[2]; BRSNS, trial 3, 33DAA1, 10 g ae/ha
  Mean % Visual Injury: 5.5%
[2]; BRSNS, trial 3, 69DAA1, 2.5 g ae/ha
  Mean % Visual Injury: 3.0%
[2]; BRSNS, trial 3, 69DAA1, 5 g ae/ha
  Mean % Visual Injury: 4.0%
[2]; BRSNS, trial 4, 8DAA1, 5 g ae/ha
  Mean % Visual Injury: 8.0%
[2]; BRSNS, trial 4, 15DAA1, 0.62 g ae/ha
  Mean % Visual Injury: 3.5%
[2]; BRSNS, trial 4, 15DAA1, 2.5 g ae/ha
  Mean % Visual Injury: 14.3%
[2]; BRSNS, trial 4, 17DAA1, 5 g ae/ha
  Mean % Visual Epinasty: 23.3%
[2]; BRSNS, trial 4, 41DAA1, 5 g ae/ha
  Mean % Visual Injury: 8.0%
[2]; BRSNS, trial 4, 82DAA1, 5 g ae/ha
  Mean % Visual Injury: 6.0%
[2]; BRSNS, trial 5, 7DAA1, 5 g ae/ha
  Mean % Visual Injury: 7.5%
[2]; BRSNS, trial 5, 7DAA1, 10 g ae/ha
  Mean % Visual Injury: 9.0% and 3.5% and 2.0% and 1.5%
[2]; BRSNS, trial 5, 15DAA1, 5 g ae/ha
  Mean % Visual Injury: 27.0%
[2]; BRSNS, trial 5, 15DAA1, 10 g ae/ha
  Mean % Visual Injury: 9.0% and 2.5% and 1.0%
[2]; BRSNS, trial 5, 36DAA1, 10 g ae/ha
  Mean % Visual Injury: 6.0%
[2]; BRSNS, trial 5, 79DAA1, 10 g ae/ha
  Mean % Visual Injury: 3.0% and 4.5% and 5.3%
[2]; BRSNS, trial 6, 6DAA1, 5 g ae/ha
  Mean % Visual Injury: 24.5%
[2]; BRSNS, trial 6, 6DAA1, 10 g ae/ha
  Mean % Visual Injury: 27.5%
[2]; BRSNS, trial 6, 23DAA1, 2.5 g ae/ha
  Mean % Visual Injury: 38.8%
[2]; BRSNS, trial 6, 23DAA1, 5 g ae/ha
  Mean % Visual Injury: 52.5%
[2]; BRSNS, trial 6, 33DAA1, 2.5 g ae/ha
  Mean % Visual Injury: 22.5%
[2]; BRSNS, trial 6, 33DAA1, 5 g ae/ha
  Mean % Visual Injury: 43.0%
[2]; BRSNS, trial 6, 59DAA1, 2.5 g ae/ha
  Mean % Visual Injury: 28.5%
[2]; BRSNS, trial 7, 17DAA1, 5 g ae/ha
  Mean % Visual Injury: 45.0%
[2]; BRSNS, trial 7, 27DAA1, 5 g ae/ha
  Mean % Visual Injury: 34.0%
[2]; BRSNS, trial 8, 7DAA1, 5 g ae/ha
  Mean % Visual Injury: 0.8%
[2]; BRSNS, trial 8, 57DAA1, 0.62 g ae/ha
  Mean % Visual Injury: 4.8%
[2]; BRSNS, trial 9, 27DAA1, 5 g ae/ha
  Mean % Visual Injury: 6.8%
[2]; BRSNS, trial 9, 60DAA1, 10 g ae/ha
  Mean % Visual Injury: 22.5% and 12.5%
[2]; Table 14, 7DAAA, halauxifen-methyl 5, quinclorac 101 g ae/ha, alone or mixed
  Mean % Visual Injury: 0.8%
[2]; Table 14, 15DAAA, halauxifen-methyl 5, quinclorac 101 g ae/ha, alone or mixed
  Mean % Visual Injury: 50.5%
[2]; Table 14, 27DAAA, halauxifen-methyl 5, quinclorac 101 g ae/ha, alone or mixed
  Mean % Visual Injury: 48.5%
[2]; Table 14, 57DAAA, halauxifen-methyl 5, quinclorac 101 g ae/ha, alone or mixed
  Mean % Visual Injury: 30.3%
[2]; Table 15, 7DAAA, halauxifen-methyl 5, clopyralid-olamine 150, quinclorac 101 g ae/ha, alone or mixed
  Mean % Visual Injury: 0.8%
[2]; Table 15, 15DAAA, halauxifen-methyl 5, clopyralid-olamine 150, quinclorac 101 g ae/ha, alone or mixed
  Mean % Visual Injury: 50.5%
[2]; Table 15, 27DAAA, halauxifen-methyl 5, clopyralid-olamine 150, quinclorac 101 g ae/ha, alone or mixed
  Mean % Visual Injury: 48.5%
[2]; Table 15, 57DAAA, halauxifen-methyl 5, clopyralid-olamine 150, quinclorac 101 g ae/ha, alone or mixed
  Mean % Visual Injury: 30.3%
[2]; Table 16, 7DAAA, halauxifen-methyl 5 g ae/ha, alone or plus isoxadifen-ethyl 5 g ae/ha
  Mean % Visual Injury: 0.8%
[2]; Table 16, 15DAAA, halauxifen-methyl 5 g ae/ha, alone or plus isoxadifen-ethyl 5 g ae/ha
  Mean % Visual Injury: 50.5%
[2]; Table 16, 27DAAA, halauxifen-methyl 5 g ae/ha, alone or plus isoxadifen-ethyl 5 g ae/ha
  Mean % Visual Injury: 48.5%
[2]; Table 16, 57DAAA, halauxifen-methyl 5 g ae/ha, alone or plus isoxadifen-ethyl 5 g ae/ha
  Mean % Visual Injury: 30.3%
[2]; Table 17, 7DAAA, halauxifen-methyl 5, clopyralid-olamine 150 g ae/ha alone, or both mixed with isoxadifen-ethyl 5 g ae/ha
  Mean % Visual Injury: 0.8%
[2]; Table 17, 15DAAA, halauxifen-methyl 5, clopyralid-olamine 150 g ae/ha alone, or both mixed with isoxadifen-ethyl 5 g ae/ha
  Mean % Visual Injury: 50.5%
[2]; Table 17, 27DAAA, halauxifen-methyl 5, clopyralid-olamine 150 g ae/ha alone, or both mixed with isoxadifen-ethyl 5 g ae/ha
  Mean % Visual Injury: 48.5%
[2]; Table 17, 57DAAA, halauxifen-methyl 5, clopyralid-olamine 150 g ae/ha alone, or both mixed with isoxadifen-ethyl 5 g ae/ha
  Mean % Visual Injury: 30.3%
[2]; Table 18, 8DAAA, halauxifen-methyl 5, clopyralid-olamine 150 g ae/ha, alone or mixed
  Mean % Visual Injury: 10%
[2]; Table 18, 14DAAA, halauxifen-methyl 5, clopyralid-olamine 150 g ae/ha, alone or mixed
  Mean % Visual Injury: 24%
